Experimental data as given in ChEMBL document CHEMBL1201862, “PubChem BioAssay data set” (2004).
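Following 48 hours of exposure in 96-well plates, responses at five concentrations were used to interpolate endpoints linearly. At the GI50, growth is halved.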 Active and inactive are the calls of the source. Rule as the data show it: active = GI50 up to about 1.1 µM and inactive = higher.

Tests used:
Experiment in all cases: growth of human tumour cells (NCI), 48 h
786-0 = test system: 786-0
HL-60 = test system: HL-60
HOP-92 = test system: HOP-92
HT-29 = test system: HT-29
K562 = test system: K562
KM12 = test system: KM12
MOLT-4 = test system: MOLT-4
NCI-H226 = test system: NCI-H226
NCI-H23 = test system: NCI-H23
NCI/ADR-RES = test system: NCI/ADR-RES
PC-3 = test system: PC-3
RXF 393 = test system: RXF 393
SK-MEL-28 = test system: SK-MEL-28
SNB-19 = test system: SNB-19
SW-620 = test system: SW-620
T47D = test system: T47D
TK-10 = test system: TK-10
U-251 = test system: U-251
UACC-62 = test system: UACC-62

SMILES | GI50 (786-0) | GI50 (HL-60) | GI50 (HOP-92) | GI50 (HT-29) | GI50 (K562) | GI50 (KM12) | GI50 (MOLT-4) | GI50 (NCI-H226) | GI50 (NCI-H23) | GI50 (NCI/ADR-RES) | GI50 (PC-3) | GI50 (RXF 393) | GI50 (SK-MEL-28) | GI50 (SNB-19) | GI50 (SW-620) | GI50 (T47D) | GI50 (TK-10) | GI50 (U-251) | GI50 (UACC-62)
Cc1cc(C)nc(NS(=O)(=O)c2ccc(NC(=O)c3ccc4nc5ccccc5c(Nc5ccc(S(N)(=O)=O)cc5)c4c3)cc2)n1 | > 100 µM (inactive) | 57.9 µM (inactive) | 51.3 µM (inactive) | 75.3 µM (inactive) | 40 µM (inactive) | 65.8 µM (inactive) | 50.6 µM (inactive) | > 100 µM (inactive) | > 100 µM (inactive) | > 100 µM (inactive) | > 100 µM (inactive) | 33 µM (inactive) | 86.7 µM (inactive) | > 100 µM (inactive) | > 100 µM (inactive) | > 100 µM (inactive) | > 100 µM (inactive) | 59 µM (inactive) | > 100 µM (inactive)
CCOC(=O)C(NCc1cccc(C(F)(F)F)c1)(NC(=O)c1ccccc1)C(F)(F)F (stereo not drawn) | 28.5 µM (inactive) | 86.9 µM (inactive) | 27.2 µM (inactive) | 19.6 µM (inactive) | 26.7 µM (inactive) | 28.1 µM (inactive) | 26.1 µM (inactive) | 27.2 µM (inactive) | 21.8 µM (inactive) | 18.8 µM (inactive) | 30.5 µM (inactive) | 9.08 µM (inactive) | 22.1 µM (inactive) | 71.9 µM (inactive) | 28.1 µM (inactive) | 22.2 µM (inactive) | 30.1 µM (inactive) | 34 µM (inactive) | 13.9 µM (inactive)
Oc1cc(-c2cccc(OCc3ccccc3)c2)nc2cc3c(cc12)OCO3 | 0.374 µM (active) | 0.0935 µM (active) | 0.578 µM (active) | 2.01 µM (inactive) | 0.235 µM (active) | 0.491 µM (active) | 0.334 µM (active) | 0.455 µM (active) | 0.75 µM (active) | 0.226 µM (active) | 0.327 µM (active) | 0.33 µM (active) | 0.632 µM (active) | 0.423 µM (active) | 0.303 µM (active) | > 52 µM (inactive) | 2.32 µM (inactive) | 0.245 µM (active) | 0.37 µM (active)
C#C[C@]1(O)CC[C@H]2[C@@H]3CCC4=C/C(=N/CCOC(=O)c5cccc6cc7ccccc7nc56)CC[C@@H]4[C@H]3CC[C@@]21C | 34.5 µM (inactive) | > 100 µM (inactive) | 20.7 µM (inactive) | 28.4 µM (inactive) | > 100 µM (inactive) | 20.6 µM (inactive) | > 100 µM (inactive) | > 100 µM (inactive) | 19.9 µM (inactive) | 26 µM (inactive) | 11.7 µM (inactive) | 4.06 µM (inactive) | 75.2 µM (inactive) | 30.4 µM (inactive) | 57.3 µM (inactive) | 16.8 µM (inactive) | 31.5 µM (inactive) | 12.7 µM (inactive) | 22 µM (inactive)
O=C(/C=C/c1ccc(O)c(O)c1)c1cc(O)cc(O)c1 | 13.7 µM (inactive) | 2.25 µM (inactive) | 13 µM (inactive) | 19.4 µM (inactive) | – | – | 4.91 µM (inactive) | 14.8 µM (inactive) | 12.3 µM (inactive) | 16.1 µM (inactive) | 13.5 µM (inactive) | 10.4 µM (inactive) | 16.4 µM (inactive) | 14.5 µM (inactive) | – | 10.5 µM (inactive) | 15.3 µM (inactive) | 10.8 µM (inactive) | 12.9 µM (inactive)
CCN(CCCl)c1ccc(NC(=O)c2cc(C(=O)NCCN(C)C)cc(C(=O)Nc3ccc(N(CC)CCCl)cc3)c2)cc1 | 0.942 µM (active) | 0.0743 µM (active) | 3.74 µM (inactive) | 1.57 µM (inactive) | 2.09 µM (inactive) | 8.65 µM (inactive) | 0.151 µM (active) | 3.94 µM (inactive) | 3.33 µM (inactive) | > 100 µM (inactive) | 2.22 µM (inactive) | 5.41 µM (inactive) | 16.6 µM (inactive) | 1.36 µM (inactive) | 1.76 µM (inactive) | 18.7 µM (inactive) | 16.7 µM (inactive) | 2.18 µM (inactive) | 4.98 µM (inactive)
CSc1c(C#N)c(O)n(-c2ccc(Cl)cc2)c(=O)c1C#N | > 100 µM (inactive) | 28.1 µM (inactive) | 30.8 µM (inactive) | > 100 µM (inactive) | 35.6 µM (inactive) | 36 µM (inactive) | 76.4 µM (inactive) | 48.1 µM (inactive) | 91.2 µM (inactive) | 77.3 µM (inactive) | > 100 µM (inactive) | > 100 µM (inactive) | > 100 µM (inactive) | > 100 µM (inactive) | 61 µM (inactive) | 64.9 µM (inactive) | > 100 µM (inactive) | > 100 µM (inactive) | 44.6 µM (inactive)
C=C(CN1CC2C[C@](C(=O)OC)(c3cc4ccccc4[nH]3)C1C(OC)C2OC)S(=O)(=O)c1ccccc1 (stereo partly drawn) | 2.4 µM (inactive) | 1.92 µM (inactive) | 0.729 µM (active) | 2.72 µM (inactive) | 2.75 µM (inactive) | 2.88 µM (inactive) | 0.53 µM (active) | 5.07 µM (inactive) | 2.91 µM (inactive) | 4.8 µM (inactive) | 3.19 µM (inactive) | 3.19 µM (inactive) | 7.53 µM (inactive) | 10.8 µM (inactive) | 3.01 µM (inactive) | 4.6 µM (inactive) | 4.85 µM (inactive) | 2.88 µM (inactive) | 4.11 µM (inactive)
CN(C)Cc1cc(C(=O)/C=C/c2ccc([N+](=O)[O-])cc2)cc(CN(C)C)c1O | 2.31 µM (inactive) | 2.07 µM (inactive) | 8.83 µM (inactive) | 9.04 µM (inactive) | 4.13 µM (inactive) | 11.9 µM (inactive) | 18.9 µM (inactive) | 3.9 µM (inactive) | 18.3 µM (inactive) | 26.7 µM (inactive) | 17 µM (inactive) | 14.2 µM (inactive) | – | 83.4 µM (inactive) | 10.3 µM (inactive) | 13.4 µM (inactive) | 16 µM (inactive) | 3.18 µM (inactive) | 13.9 µM (inactive)
O=CC(O)C(O)C(O)C1CNC(=S)O1 (stereo not drawn) | > 100 µM (inactive) | > 100 µM (inactive) | > 100 µM (inactive) | > 100 µM (inactive) | > 100 µM (inactive) | > 100 µM (inactive) | > 100 µM (inactive) | > 100 µM (inactive) | > 100 µM (inactive) | > 100 µM (inactive) | > 100 µM (inactive) | > 100 µM (inactive) | > 100 µM (inactive) | – | > 100 µM (inactive) | > 100 µM (inactive) | > 100 µM (inactive) | > 100 µM (inactive) | > 100 µM (inactive)
CCOC(=O)c1cc2c(=Cc3ccc(N(C)C)cc3)c3ccccc3n2[n+]1C | 1.93 µM (inactive) | 0.372 µM (active) | 2.88 µM (inactive) | < 0.01 µM (active) | 0.787 µM (active) | – | 1.9 µM (inactive) | 8.24 µM (inactive) | 2.55 µM (inactive) | > 100 µM (inactive) | 0.574 µM (active) | 1.63 µM (inactive) | 1.53 µM (inactive) | 2.15 µM (inactive) | 0.637 µM (active) | 3.12 µM (inactive) | 7.67 µM (inactive) | 0.304 µM (active) | 1.33 µM (inactive)
